In EP0765662A1, “HIV GROWTH INHIBITORY COMPOSITION” (Kochi, Mutsuyuki, priority 1994, dated 1995):
Where a name gives a salt, the structure may show the parent alone.

Test system: HIVBRU
Assay: HIV-p24 antigen released from HIV-infected A3.01 cells stimulated with TNF-α
Format: cell-based
Details: TNF-α 10 units/ml; for Amount of the HIV p24 antigen: HIV-infected A3.01 cells
Source text: In view of all these test results, it appears that the inhibitory activity of SBA against the replication of HIV-1 is not attributable to that SBA directly acts on HIV so as to make lose the infectivity (infectious power) of HIV. (c) Test of examining the inhibitory activity of SBA against such replication of the viral particles of HIV which is induced when a tumor necrosis factor (TNF-α) is introduced into the HIV-infected A3.01 cells AIDS virus, HIVBRU (its reverse transcriptase activity, 0.03 cpm/cell) and 6 x 10^6 cells of the A3.01 cell (HAT-susceptible CEM cell strain) were mixed and reacted together in a culture medium at 37°C for 1 hour, and thereafter the mixed cells were washed with PBS to remove the excess of the particles of HIV virus therefrom. The A3.01 cells (5 x 10^5 cells) which had been so infected with HIV were then cultivated in various culture media containing TNF-α and SBA at different concentrations of them. The amount of the HIV-p24 antigen (an HIV-structural protein of HIV) which was released in the culture supernatant from the cultivated cells under test was periodically measured during the period of between 0 day to 5th day of the cultivation. The culture medium used for the above-mentioned cultivation of the A3.01 cells was an RPM1-1640 medium comprising 10% of heat-treated embryonic bovine serum, and minor amounts of penicillin, streptomycin, glutamine and mercaptoethanol. The amount of the HIV-p24 antigen produced was measured with lapse of time, and the relationship of the amount of the HIV-p24 antigen to the concentration of SBA is summarily tabulated in Table 4 below.
In the tests above, the replication of the viral particles of HIV was examined in terms of the amount of the p24 antigen protein produced and appearing in the culture supernatant from the cultivated cells. Thus, the amount of the p24 antigen produced was measured periodically over 6 days after the A3.01 cells were infested with HIV. It was then observed that in the absence of SBA, the replication of the viral particles of HIV was induced in the A3.01 cells by stimulation with 10 units/ml of TNF-α added. […] Thus, the effective amount of SBA has the activity to inhibit the replication of the viral particles of HIV within the cells to an extent as same as AZT, and from this it is expected that SBA is useful similarly to AZT for the therapeutic treatments of AIDS. (d) Tests for evaluating an inhibitory activity of SBA to the formation of giant cells from HIV-infected Molt-4 cells In a similar manner to that in the above Test (c), Molt-4 cells (a CD4-positive human T-cell strain) were infected with AIDS virus, HIVBRU. Thereafter, The HIV-infected Molt-4 cells were mixed with such Molt-4 cells which had no HIV-infection. And the mixture of these cells were cultivated at a high density of the mixed cells in the above-mentioned improved RPM1-1640 medium containing SBA at its different concentrations. Whereupon, there was examined the presence of cell-fused cell(s) (namely, the giant cells) which were formed by fusion of the HIV-infected cells with each other or by fusion of the HIV-infected cells with the HIV-non-infected cells. The formation and appearance of the giant cells was confirmed by microscopic observation. The size of such giant cells is clearly different from the size of the other usual cells. […] Namely, it is shown that SBA has an anti-HIV activity. […] In the initial stage of the transcription of HIV-1 gene, said NFkB, i.e. the transcription regulating factor of the host cells, plays an important role. […] NFkB is known to be a complex protein which is composed by the association of a molecule of protein having a molecular weight of about 50,000 (p50) with a molecule of protein having a molecular weight of about 65,000 (p65). […]

O=C1O[C@H]([C@@H]2COC(c3ccccc3)O2)C(O)=C1O (stereo partly drawn) [SBA, 5,6-O-benzylidene-L-ascorbic acid mono-sodium salt]
inhibition at 10 µg/mL (Human immunodeficiency virus 1, SBA 10 µg/ml, in comparison with the cases when SBA was absent, read-out: inhibition of the replication of the HIV viral particles): 50%
Amount of the HIV p24 antigen (SBA 1 µg/ml, 0th day): 0 pg/mL
Amount of the HIV p24 antigen (SBA 1 µg/ml, 1st day): 0 pg/mL
Amount of the HIV p24 antigen (SBA 1 µg/ml, 2nd day): 0 pg/mL
Amount of the HIV p24 antigen (SBA 1 µg/ml, 3rd day): 1400 pg/mL
Amount of the HIV p24 antigen (SBA 1 µg/ml, 4th day): 2600 pg/mL
inhibition of the replication of the viral particles of HIV (in words) (SBA 1 µg/ml, 5th day from the HIV infection): considerably inhibited
Amount of the HIV p24 antigen (SBA 1 µg/ml, 5th day): 4000 pg/mL
Amount of the HIV p24 antigen (SBA 10 µg/ml, 0th day): 0 pg/mL
Amount of the HIV p24 antigen (SBA 10 µg/ml, 1st day): 0 pg/mL
Amount of the HIV p24 antigen (SBA 10 µg/ml, 2nd day): 0 pg/mL
Amount of the HIV p24 antigen (SBA 10 µg/ml, 3rd day): 800 pg/mL
Amount of the HIV p24 antigen (SBA 10 µg/ml, 4th day): 1500 pg/mL
Amount of the HIV p24 antigen (SBA 10 µg/ml, 5th day): 2250 pg/mL
Amount of the HIV p24 antigen (SBA 100 µg/ml, 0th day): 0 pg/mL
Amount of the HIV p24 antigen (SBA 100 µg/ml, 1st day): 0 pg/mL
Amount of the HIV p24 antigen (SBA 100 µg/ml, 2nd day): 0 pg/mL
Amount of the HIV p24 antigen (SBA 100 µg/ml, 3rd day): 0 pg/mL
Amount of the HIV p24 antigen (SBA 100 µg/ml, 4th day): 0 pg/mL
Amount of the HIV p24 antigen (SBA 100 µg/ml, 5th day): 0 pg/mL
inhibition of the replication of the viral particles of HIV (in words) (SBA 100 µg/ml): completely inhibited
